Assay results taken from the CheMixHub ionic liquid set.

Assay: xn = mol fraction of the nth substance listed
Conditions: 100 kPa

CCCCCCCC[P+](CC)(CC)CC.Cc1ncc([N+](=O)[O-])[n-]1 + COCCOCCOCCOCCOC
viscosity [mPa·s]
Conditions	278.15 K	283.15 K	288.15 K	293.15 K	298.15 K	303.15 K	308.15 K	313.15 K	318.15 K	323.15 K
x2 = 0	3660	2240	1410	920	623	435	313	231	174	135
x2 = 0.036	2730	1700	1090	722	495	350	255	189	145	113
x2 = 0.067	1990	1270	829	559	390	280	206	155	120	95
x2 = 0.115	1470	955	636	438	310	227	170	130	101	81
x2 = 0.233	651	446	311	223	166	126	98	78	62	–
x2 = 0.3	375	262	187	137	103	80	64	51	–	–
x2 = 0.399	200	145	107	81	64	50	–	–	–	–
x2 = 0.5	113	86	66	51	–	–	–	–	–	–
x2 = 0.598	62	–	–	–	–	–	–	–	–	–
